The target in data set [1] is T1, PI3K delta (PI3 Kd) (Homo sapiens, UniProt O00329).
T1 construct: endogenous in cells; host or cells: Jurkat, clone E6-1 (ATCC TIB-152) cell lysate
Kind of data set: kinobeads assay, PI3K delta. Format: binding. The conditions noted are these: kinobeads assay, Table 6; read-out: Inhibition values (IC50) PI3Kd. The method, boiled down: (§1)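 Competitive binding in Jurkat cell lysate (5 mg/mL protein) against beads carrying an immobilized phenylmorpholin-chromen ligand, in DP buffer pH 7.4 with NP40, DTT and NaF. Bead-bound kinases were eluted and quantified by antibody dot blot with infrared detection, and IC50 was taken from dose-response curves of a 1:3 dilution series.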

Data set [2] deals with S6RP serine-240/244 phosphorylation. Briefly: In vitro Phospho-S6 cellular assay (pS6RP S240/244) in HEK293T/17 cells. Format: cell-based. The settings on record: Homo sapiens, 2 hours, read-out: pS6 IC50. The source says: Activation of mTOR signaling results in phosphorylation of several downstream targets. In cells, mTOR exists in two different protein complexes. The mTOR Complex-1 (mTORC1) phosphorylates and activates S6 Kinase 1 (S6K1) and S6 Kinase 2 (S6K2) (also known as p70S6K) which then phosphorylate S6 Ribosomal Protein (S6RP) (also known as RPS6)3. S6RP is phosphorylated on serine 235, serine 236, serine 240 and serine 244 by both pS6K1 and pS6K2. The mTOR Complex-2 (mTORC2) phosphorylates AKT on serine 473 which activates the AKT signaling pathway.
The assay measures a test compound's inhibition of S6RP serine-240/244 phosphorylation and inhibition of Akt serine-473 phosphorylation in human embryonic kidney derived HEK293T/17 cells (ATCC CRL-11268).
The HEK293T/17 cell line is maintained in DMEM media (Invitrogen catalogue number 41965-039) supplemented with 10% FCS at 37° C. in a 5% CO2 humidified incubator.
Cells are seeded in 96-well plates at 40,000 cells/well (pS6RP S240/244 assay) or 80,000 cells/well (pAkt S473 assay) in 90 μl growth media (DMEM, 2% FCS). Plates are incubated for 1 hour in a humidified incubator to allow the cells to adhere. Cells are treated with 8 concentrations of test compounds or DMSO alone for controls (final DMSO concentration 0.1%) and incubated at 37° C. for 2 hours. Then 20 μl of 5× concentrated lysis buffer (750 mM NaCl, 100 mM Tris pH7.4, 5 mM ADTA, 5 mM EGTA, 5% Triton X-100) is added, plates are sealed and incubated for 15 minutes at 4° C. with gentle shaking. After cell lysis, 25 μl cell lysate is transferred to a MesoScale plate coated with an antibody to pS6RP Ser240/244 (MesoScale Discovery K150DGD-3) or an antibody to pAkt Ser 473 (MesoScale Discovery K151DGD-3). Plates have been blocked before by incubation with 150 μl MesoScale Discovery Blocking Solution-A for 1 hour at room temperature followed by washing with 150 μl 1× Tris wash buffer per well. After the transfer of the cell lysate to the MSD plate, the pS6RP (or pAkt) protein is captured on the coated antibody by incubation at room temperature for 1 hour with gentle shaking. After the capture step the plate is washed three times with 150 μl of 1× Tris wash buffer per well. Then 25 μl detection antibody conjugated with a Sulfo-Tag is added and incubated for 1 hour at room temperature with gentle shaking. Subsequently the antibody solution is removed and the plate is washed 3 times with 150 μl×Tris wash buffer per well and 150 μl Read buffer is added. The plates are analysed on a MSD 2400 Plate Reader (MesoScale Discovery). Data analysis is performed using nonlinear regression for a sigmoidal dose-response with a variable slope.

In data set [3] the target is T2, PI3Kalpha (PI3Ka) (Homo sapiens, UniProt P42336).
T2 construct: endogenous in cells; host or cells: cell lysate
T2 sequence (P42336 whole entry): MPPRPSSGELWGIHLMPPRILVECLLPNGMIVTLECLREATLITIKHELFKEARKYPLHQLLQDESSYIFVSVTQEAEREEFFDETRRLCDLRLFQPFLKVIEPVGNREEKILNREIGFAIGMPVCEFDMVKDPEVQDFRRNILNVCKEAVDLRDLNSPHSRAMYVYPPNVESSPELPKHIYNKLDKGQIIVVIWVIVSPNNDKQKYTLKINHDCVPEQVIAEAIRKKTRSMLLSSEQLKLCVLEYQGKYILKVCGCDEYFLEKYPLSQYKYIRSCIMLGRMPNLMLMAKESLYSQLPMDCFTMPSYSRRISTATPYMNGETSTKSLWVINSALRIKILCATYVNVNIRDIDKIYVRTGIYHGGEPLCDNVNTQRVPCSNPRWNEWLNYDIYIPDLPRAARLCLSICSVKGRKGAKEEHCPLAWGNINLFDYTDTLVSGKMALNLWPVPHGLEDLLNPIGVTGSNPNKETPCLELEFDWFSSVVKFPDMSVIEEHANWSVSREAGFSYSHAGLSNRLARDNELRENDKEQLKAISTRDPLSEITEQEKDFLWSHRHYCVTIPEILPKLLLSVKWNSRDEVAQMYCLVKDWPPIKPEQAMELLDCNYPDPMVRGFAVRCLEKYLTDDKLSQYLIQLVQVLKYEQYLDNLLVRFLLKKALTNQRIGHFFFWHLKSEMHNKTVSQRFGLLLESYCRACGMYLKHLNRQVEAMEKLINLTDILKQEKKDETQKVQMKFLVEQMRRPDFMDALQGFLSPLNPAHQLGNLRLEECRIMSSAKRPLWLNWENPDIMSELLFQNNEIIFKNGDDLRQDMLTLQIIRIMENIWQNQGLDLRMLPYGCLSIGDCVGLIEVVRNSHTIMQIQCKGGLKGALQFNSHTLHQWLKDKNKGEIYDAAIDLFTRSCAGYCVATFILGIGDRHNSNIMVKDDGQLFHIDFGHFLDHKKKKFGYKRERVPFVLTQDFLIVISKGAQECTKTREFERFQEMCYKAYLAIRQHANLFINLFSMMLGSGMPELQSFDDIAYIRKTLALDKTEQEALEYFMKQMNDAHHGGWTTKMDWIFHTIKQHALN
T2 sequence (P27986 whole entry partner): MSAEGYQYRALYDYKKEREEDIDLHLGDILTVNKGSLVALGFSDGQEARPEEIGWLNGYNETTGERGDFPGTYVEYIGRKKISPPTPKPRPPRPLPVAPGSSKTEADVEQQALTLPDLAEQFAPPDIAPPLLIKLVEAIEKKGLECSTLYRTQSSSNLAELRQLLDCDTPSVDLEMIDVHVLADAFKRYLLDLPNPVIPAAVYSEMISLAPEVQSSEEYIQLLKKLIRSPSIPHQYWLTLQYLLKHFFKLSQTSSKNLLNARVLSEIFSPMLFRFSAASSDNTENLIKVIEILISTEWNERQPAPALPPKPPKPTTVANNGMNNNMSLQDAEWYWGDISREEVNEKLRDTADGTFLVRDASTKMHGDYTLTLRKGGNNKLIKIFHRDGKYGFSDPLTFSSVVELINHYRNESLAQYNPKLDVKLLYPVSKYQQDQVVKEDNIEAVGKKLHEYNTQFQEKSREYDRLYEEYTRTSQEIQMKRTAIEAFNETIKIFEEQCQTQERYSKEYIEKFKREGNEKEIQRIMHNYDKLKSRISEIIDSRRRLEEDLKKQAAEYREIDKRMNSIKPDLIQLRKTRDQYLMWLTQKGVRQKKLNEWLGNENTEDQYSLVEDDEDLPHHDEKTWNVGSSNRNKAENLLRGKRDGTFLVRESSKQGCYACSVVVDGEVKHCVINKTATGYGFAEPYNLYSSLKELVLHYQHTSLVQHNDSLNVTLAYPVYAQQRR
Briefly: kinobeads assay, PI3Kalpha. The conditions noted are these: kinobeads assay, Table 6. Format: binding. The method, boiled down:
(§2)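 Test compounds at various concentrations were added to cell lysate together with beads carrying an immobilized phenylmorpholin-chromen ligand, competing for kinase binding. Captured proteins were separated, eluted and quantified by multiplexed immunodetection; IC50 values came from dose-response curves for each kinase.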

The target of data set [4] is T3, PI3 Kbeta (PI3 Kb) (Homo sapiens, UniProt P42338).
T3 construct: endogenous in cells; host or cells: cell lysate
T3 sequence (P42338 whole entry): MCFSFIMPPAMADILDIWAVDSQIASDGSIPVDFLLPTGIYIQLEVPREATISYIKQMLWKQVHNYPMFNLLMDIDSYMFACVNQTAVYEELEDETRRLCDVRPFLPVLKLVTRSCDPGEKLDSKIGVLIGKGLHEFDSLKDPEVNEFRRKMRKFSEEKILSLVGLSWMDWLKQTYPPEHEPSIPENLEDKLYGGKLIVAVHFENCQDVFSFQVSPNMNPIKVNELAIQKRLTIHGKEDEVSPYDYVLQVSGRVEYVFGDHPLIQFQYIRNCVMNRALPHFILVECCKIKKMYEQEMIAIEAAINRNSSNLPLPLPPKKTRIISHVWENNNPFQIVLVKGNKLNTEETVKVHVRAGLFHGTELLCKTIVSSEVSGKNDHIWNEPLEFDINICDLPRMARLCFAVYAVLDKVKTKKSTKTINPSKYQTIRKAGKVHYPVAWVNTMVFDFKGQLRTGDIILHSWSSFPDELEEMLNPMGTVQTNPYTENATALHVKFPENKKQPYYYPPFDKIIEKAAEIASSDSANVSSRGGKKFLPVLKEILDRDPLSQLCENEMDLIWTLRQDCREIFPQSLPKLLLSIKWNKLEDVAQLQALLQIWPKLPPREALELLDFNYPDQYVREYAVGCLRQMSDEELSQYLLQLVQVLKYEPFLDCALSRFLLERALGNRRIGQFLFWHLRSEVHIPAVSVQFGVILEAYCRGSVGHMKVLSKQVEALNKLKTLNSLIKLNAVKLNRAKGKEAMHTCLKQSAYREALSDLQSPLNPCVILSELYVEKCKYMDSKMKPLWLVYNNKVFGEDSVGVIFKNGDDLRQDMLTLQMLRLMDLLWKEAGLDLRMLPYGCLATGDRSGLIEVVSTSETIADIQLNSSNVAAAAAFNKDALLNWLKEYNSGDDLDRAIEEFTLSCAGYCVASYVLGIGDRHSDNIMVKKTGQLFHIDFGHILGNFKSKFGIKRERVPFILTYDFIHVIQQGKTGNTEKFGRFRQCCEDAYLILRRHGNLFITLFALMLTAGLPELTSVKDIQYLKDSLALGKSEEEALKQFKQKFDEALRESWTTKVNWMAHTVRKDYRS
T3 sequence (P27986 whole entry partner): as the sequence (P27986 whole entry partner) above
Briefly: kinobeads assay, PI3Kbeta. Format: binding. The conditions noted are these: kinobeads assay, Table 6; read-out: Inhibition values (IC50) PI3Kb. The method, boiled down:
as §2

Data set [5] has as its target T4, DNA-dependent protein kinase (DNA-PK) (Homo sapiens, UniProt P78527).
T4 construct: endogenous in cells; host or cells: Jurkat, clone E6-1 (ATCC TIB-152) cell lysate
Kind of data set: kinobeads assay, DNA-PK. The settings on record: kinobeads assay, Table 6; read-out: Inhibition values (IC50) DNAPK. Format: binding. The method, boiled down: as §1

Data set [6] concerns the target T5, PI3 Kgamma (PI3 Kg) (Homo sapiens, UniProt P48736).
T5 construct: endogenous in cells; host or cells: cell lysate
Briefly: kinobeads assay, PI3Kgamma. The conditions noted are these: kinobeads assay, Table 6; read-out: Inhibition values (IC50) PI3Kg. Format: binding. The method, boiled down: as §2

For data set [7], the system named is Salmonella typhimurium strain TA1535. Briefly: Ames plate assay, TA1535. The protocol:
(§3) Certain compounds of the invention were tested for their potential to induce gene mutations in bacterial strains of Salmonella typhimurium (strains TA1535, TA1537, TA98, TA100) and Escherichia coli (strain WP2uvrA(pKM101)) in a bacterial mutation assay in the absence and presence of metabolite activation (rat S9-mix). Compounds are tested at the following dose levels: 50, 150, 500, or 1500 μg/plate.
(§4) Vehicle control treatment is the vehicle used to prepare the test compound formulation diluted to the same extent as the test compound solution. Positive controls using known mutagens are included for each strain with and without rat S9 mix. Four plates are used for the vehicle control and two replicate plates per dose per strain for the treated groups and for each positive control. At the end of incubation the number of revertant colonies per plate are recorded and mean values calculated for each vehicle control, positive control and concentration of test compound used. Results are also expressed as a ratio of the mean values to the mean concurrent vehicle control value (i.e. fold increase).

The test system of data set [8] is Salmonella typhimurium strain TA1537. Kind of data set: Ames plate assay, TA1537. As for the experimental part: as §3, §4
Data set [9] relates to Salmonella typhimurium strain TA100. Briefly: Ames plate assay, TA100. As for the experimental part: as §3, §4
The test system of data set [10] is Escherichia coli strain WP2uvrA(pKM101). Briefly: Ames plate assay, WP2uvrA(pKM101). The protocol: as §3, §4
Data set [11] relates to Salmonella typhimurium strain TA98. Kind of data set: Ames plate assay, TA98. The protocol: as §3, §4

T1 sequence (O00329 whole entry): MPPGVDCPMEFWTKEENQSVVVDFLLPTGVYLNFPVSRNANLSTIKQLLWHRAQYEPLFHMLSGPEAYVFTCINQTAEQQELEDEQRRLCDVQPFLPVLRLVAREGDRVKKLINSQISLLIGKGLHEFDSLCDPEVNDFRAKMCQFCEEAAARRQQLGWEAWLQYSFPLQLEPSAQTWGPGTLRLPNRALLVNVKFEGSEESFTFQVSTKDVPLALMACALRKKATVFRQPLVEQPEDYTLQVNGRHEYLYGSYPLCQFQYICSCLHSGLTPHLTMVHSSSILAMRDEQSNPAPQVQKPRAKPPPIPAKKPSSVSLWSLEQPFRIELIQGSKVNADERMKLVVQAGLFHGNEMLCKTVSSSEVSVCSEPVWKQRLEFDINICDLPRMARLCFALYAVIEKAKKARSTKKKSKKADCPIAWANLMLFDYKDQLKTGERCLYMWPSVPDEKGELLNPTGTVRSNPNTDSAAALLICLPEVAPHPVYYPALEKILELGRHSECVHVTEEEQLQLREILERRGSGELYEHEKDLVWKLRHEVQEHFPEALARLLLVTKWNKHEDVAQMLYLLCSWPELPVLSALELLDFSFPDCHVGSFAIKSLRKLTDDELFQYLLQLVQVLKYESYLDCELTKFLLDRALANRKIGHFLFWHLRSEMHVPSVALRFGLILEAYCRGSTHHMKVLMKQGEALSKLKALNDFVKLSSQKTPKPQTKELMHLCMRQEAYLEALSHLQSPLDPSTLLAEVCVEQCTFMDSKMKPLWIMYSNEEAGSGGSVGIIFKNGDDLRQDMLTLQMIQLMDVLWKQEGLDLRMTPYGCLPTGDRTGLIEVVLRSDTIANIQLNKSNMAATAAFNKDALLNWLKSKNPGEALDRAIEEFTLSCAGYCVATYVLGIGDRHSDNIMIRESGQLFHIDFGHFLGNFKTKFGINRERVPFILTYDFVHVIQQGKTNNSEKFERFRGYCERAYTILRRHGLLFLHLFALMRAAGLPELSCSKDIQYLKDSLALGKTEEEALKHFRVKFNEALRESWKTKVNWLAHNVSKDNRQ
T1 sequence (P27986 whole entry partner): as the sequence (P27986 whole entry partner) above
T5 sequence (P48736 whole entry): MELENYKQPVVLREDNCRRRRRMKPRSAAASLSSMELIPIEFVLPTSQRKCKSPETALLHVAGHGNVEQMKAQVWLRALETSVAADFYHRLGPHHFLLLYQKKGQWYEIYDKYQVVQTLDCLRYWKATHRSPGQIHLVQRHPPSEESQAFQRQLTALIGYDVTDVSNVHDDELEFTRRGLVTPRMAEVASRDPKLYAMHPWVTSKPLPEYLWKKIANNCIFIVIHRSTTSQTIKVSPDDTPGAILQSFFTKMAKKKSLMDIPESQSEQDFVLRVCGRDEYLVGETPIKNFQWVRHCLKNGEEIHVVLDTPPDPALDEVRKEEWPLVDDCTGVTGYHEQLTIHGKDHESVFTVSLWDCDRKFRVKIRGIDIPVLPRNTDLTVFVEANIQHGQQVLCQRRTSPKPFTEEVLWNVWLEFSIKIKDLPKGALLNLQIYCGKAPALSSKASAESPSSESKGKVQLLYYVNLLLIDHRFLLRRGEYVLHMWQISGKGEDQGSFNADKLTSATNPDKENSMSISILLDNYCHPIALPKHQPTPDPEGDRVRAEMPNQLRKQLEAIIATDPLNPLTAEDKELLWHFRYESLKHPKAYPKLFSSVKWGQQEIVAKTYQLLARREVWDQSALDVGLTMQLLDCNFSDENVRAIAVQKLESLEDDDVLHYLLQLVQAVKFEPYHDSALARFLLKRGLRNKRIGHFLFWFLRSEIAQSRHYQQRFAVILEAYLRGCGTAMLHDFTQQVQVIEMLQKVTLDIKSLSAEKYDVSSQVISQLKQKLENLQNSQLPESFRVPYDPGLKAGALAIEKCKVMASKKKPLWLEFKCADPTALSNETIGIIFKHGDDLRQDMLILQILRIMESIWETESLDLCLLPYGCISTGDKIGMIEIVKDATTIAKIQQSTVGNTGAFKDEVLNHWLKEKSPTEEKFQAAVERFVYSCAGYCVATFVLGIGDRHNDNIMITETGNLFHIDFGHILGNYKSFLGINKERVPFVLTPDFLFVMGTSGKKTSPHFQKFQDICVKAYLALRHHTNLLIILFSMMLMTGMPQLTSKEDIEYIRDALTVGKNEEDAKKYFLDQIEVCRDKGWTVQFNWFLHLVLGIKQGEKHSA

As for `CCNC(=O)Nc1ccc(-c2nc3c(c(N4CCOCC4)n2)CN(C(=O)NCC)C3)cc1` [Example 79, N-ethyl-2-(4-(3-ethylureido)phenyl)-4-morpholino-5H-pyrrolo[3,4-d]pyrimidine-6(7H)-carboxamide], the IC50 (usually the concentration that inhibits the measured activity by half) is 1 to 10 µM in data set [1]; 0.589 µM in data set [2]; 1 to 10 µM in [3] (read-out: Inhibition values (IC50) PI3Ka); over 10 µM in data set [4]; 1 to 10 µM in [5]; over 10 µM in [6].
Turning to `CCNC(=O)Nc1ccc(-c2nc3c(c(N4CCOCC4)n2)CCNC3)cc1` [Example 82, 1-ethyl-3-(4-(4-morpholino-5,6,7,8-tetrahydropyrido[3,4-d]pyrimidin-2-yl)phenyl)urea], the IC50 is over 10 µM in data set [1]; 0.991 µM in [2]; over 10 µM in [4]; over 10 µM in data set [5]; over 10 µM in data set [6]. The “Inhibition values (IC50) PI3Ka” value in data set [3] is “D (D >10 μM)”.
Consider `CCNC(=O)Nc1ccc(-c2nc3c(c(N4CCOCC4)n2)CCN(C(=O)OC)C3)cc1` [Example 95, methyl 2-(4-(3-ethylureido)phenyl)-4-morpholino-5,6-dihydropyrido[3,4-d]pyrimidine-7(8H)-carboxylate], for which the IC50 is over 10 µM in data set [1]; 0.218 µM in data set [2]; over 10 µM in data set [4]; over 10 µM in data set [5]; over 10 µM in data set [6]. Further, the “Inhibition values (IC50) PI3Ka” value in [3] is listed as “D (D >10 μM)”.
Consider `CCOC(=O)N1Cc2nc(-c3ccc(N)cc3F)nc(N3CCOC[C@@H]3C)c2C1` [Example 138], for which the “Ames plate assay TA1535 +S9” value in [7] (TA1535, +S9, 50 μg/Plate) was “−”; in [7] (TA1535, +S9, 150 μg/Plate), “−”; in [7] (TA1535, +S9, 500 μg/Plate), “−”; in data set [7] (TA1535, +S9, 1500 μg/Plate) it was “−”. The “Ames plate assay TA1535 −S9” value was “−” in data set [7] (TA1535, −S9, 50 μg/Plate); “−” in [7] (TA1535, −S9, 150 μg/Plate); “−” in data set [7] (TA1535, −S9, 500 μg/Plate); “−” in data set [7] (TA1535, −S9, 1500 μg/Plate). For the same compound, the “Ames plate assay TA1537 +S9” value was “−” in data set [8] (TA1537, +S9, 50 μg/Plate); “−” in [8] (TA1537, +S9, 150 μg/Plate); “−” in data set [8] (TA1537, +S9, 500 μg/Plate); “−” in data set [8] (TA1537, +S9, 1500 μg/Plate). Besides, the “Ames plate assay TA1537 −S9” value in [8] (TA1537, −S9, 50 μg/Plate) is reported as “−”; in data set [8] (TA1537, −S9, 150 μg/Plate) it was “−”; in data set [8] (TA1537, −S9, 500 μg/Plate) it was “−”; in data set [8] (TA1537, −S9, 1500 μg/Plate), “−”. Also, the “Ames plate assay TA100 +S9” value in data set [9] (TA100, +S9, 50 μg/Plate) is “−”; in data set [9] (TA100, +S9, 150 μg/Plate) it was “−”; in data set [9] (TA100, +S9, 500 μg/Plate), “−”; in data set [9] (TA100, +S9, 1500 μg/Plate), “−”. Besides, the “Ames plate assay TA100 −S9” value in data set [9] (TA100, −S9, 50 μg/Plate) is on record as “−”; in [9] (TA100, −S9, 150 μg/Plate) it was “−”; in [9] (TA100, −S9, 500 μg/Plate), “−”; in data set [9] (TA100, −S9, 1500 μg/Plate) it was “−”. Moreover, the “Ames plate assay WP2uvrA (pKM101) +S9” value in data set [10] (+S9, 50 μg/Plate) was “−”; in data set [10] (+S9, 150 μg/Plate), “−”; in data set [10] (+S9, 500 μg/Plate), “−”; in data set [10] (+S9, 1500 μg/Plate), “−”. The “Ames plate assay WP2uvrA (pKM101) −S9” value in [10] (−S9, 50 μg/Plate) is “−”; in data set [10] (−S9, 150 μg/Plate), “−”; in data set [10] (−S9, 500 μg/Plate), “−”; in data set [10] (−S9, 1500 μg/Plate), “−”. The “Ames plate assay TA98 +S9” value in data set [11] (TA98, +S9, 50 μg/Plate) is reported as “−”; in data set [11] (TA98, +S9, 150 μg/Plate) it was “−”; in data set [11] (TA98, +S9, 500 μg/Plate) it was “−”; in data set [11] (TA98, +S9, 1500 μg/Plate), “−”. Further, the “Ames plate assay TA98 −S9” value is on record as “−” in data set [11] (TA98, −S9, 50 μg/Plate); “−” in data set [11] (TA98, −S9, 150 μg/Plate); “−” in [11] (TA98, −S9, 500 μg/Plate); “−” in [11] (TA98, −S9, 1500 μg/Plate).

Source of the values: patent US8785457B2 (Cellzome Limited, priority 2009, dated 2014).
